Assay results from US11840686B2, “Modulation of prekallikrein (PKK) expression” (Ionis Pharmaceuticals, Inc., priority 2013, dated 2023).
Values joined by “and” are separate entries in the source; they are usually repeats but may differ in a detail not shown here. Identical values can stand only once.

How the values were obtained:
[1] = Tolerability / clinical observation of cynomolgus monkeys (Example 8); type: in vivo, cynomolgus monkey; conditions: primates, Example 8
Procedure: (§1) Cynomolgus monkeys were treated with ISIS antisense oligonucleotides selected from studies described above. Antisense oligonucleotide efficacy and tolerability were evaluated. The human antisense oligonucleotides tested are cross-reactive with the rhesus genomic sequence (GENBANK Accession No. NW_001118167.1 truncated from nucleotides 2358000 to 2391000 and designated herein as SEQ ID NO: 18).
During the study period, the monkeys were observed a minimum of once daily for signs of illness or distress. Any animal experiencing more than momentary or slight pain or distress due to the treatment, injury or illness was promptly reported to the responsible veterinarian and the Study Director. Any animal in poor health or in a possible moribund condition was identified for further monitoring and possible euthanasia. […] The protocols described in the Example were approved by the Institutional Animal Care and Use Committee (IACUC).

[2] = C-reactive protein and complement C3 levels in cynomolgus monkeys (Example 8); conditions: cynomolgus monkey plasma, 40 mg/kg sc
Procedure: (§4) Prior to the study, the monkeys were kept in quarantine for a 30-day period, during which the animals were observed daily for general health. The monkeys were 2-4 years old and weighed between 2 and 4 kg. Ten groups of four randomly assigned male cynomolgus monkeys each were injected subcutaneously with ISIS oligonucleotide or PBS. PBS solution or ISIS oligonucleotides at a dose of 40 mg/kg were administered initially with a loading regimen consisting of four doses on the first week of the study (days 1, 3, 5, and 7), followed by a maintenance regimen consisting of once weekly administration starting on Day 14 (weeks 2 to 13). Subcutaneous injections were performed in clock-wise rotations at 4 sites on the back; one site per dose. The injection sites were delineated by tattoo, while sedated using ketamine, and were separated by a minimum of 3 cm.
To evaluate any inflammatory effect of ISIS oligonucleotides in cynomolgus monkeys, the monkeys were fasted overnight. Approximately, 1.5 mL of blood samples were collected from all the study groups. Blood was collected in tubes without anticoagulant for serum separation. The tubes were kept at room temperature for a minimum of 90 min and then centrifuged at 3,000 rpm for 10 min. C-reactive protein (CRP), which is synthesized in the liver and which serves as a marker of inflammation, was measured using a Toshiba 120FR NEO chemistry analyzer (Toshiba Co., Japan). Complement C3 was also measured similarly, and the data is presented as a percentage of baseline values.

[3] = Kidney function: plasma BUN and creatinine in cynomolgus monkeys (Example 8); conditions: 40 mg/kg s.c.
Procedure: as §4
To evaluate the effect of ISIS oligonucleotides on kidney function, the monkeys were fasted overnight. Approximately, 1.5 mL of blood samples were collected from all the study groups. Blood was collected in tubes without anticoagulant for serum separation. The tubes were kept at room temperature for a minimum of 90 min and then centrifuged at 3,000 rpm for 10 min. Levels of BUN and creatinine were measured using a Toshiba 120FR NEO chemistry analyzer (Toshiba Co., Japan).

PKK mRNA = PKK mRNA in cynomolgus monkey liver (Example 8); type: in vivo; conditions: primates, Example 8
Procedure: as §1
On day 87 or 88, 48 hours after the final dose, RNA was extracted from liver tissue for real-time PCR analysis of PKK using primer probe set RTS3455 (forward sequence […], designated herein as SEQ ID NO: 23; reverse sequence […], designated herein as SEQ ID NO: 24; probe sequence […], designated herein as SEQ ID NO: 25). The results were normalized to the housekeeping gene, Cyclophilin. Results are presented as percent inhibition of PKK mRNA, relative to PBS control.

[4] = Liver function markers in cynomolgus monkeys (Example 8); conditions: cynomolgus monkey plasma, 40 mg/kg sc
Procedure: as §4
To evaluate the effect of ISIS oligonucleotides on hepatic function, the monkeys were fasted overnight. Approximately, 1.5 mL of blood samples were collected from all the study groups. Blood was collected in tubes without anticoagulant for serum separation. The tubes were kept at room temperature for a minimum of 90 min and then centrifuged at 3,000 rpm for 10 min. Levels of various liver function markers were measured using a Toshiba 120FR NEO chemistry analyzer (Toshiba Co., Japan).

PKK protein [5] = test: Plasma PKK protein levels in human KLKB1 transgenic mice (Example 7); type: in vivo; conditions: transgenic mice
Procedure: (§2) Transgenic mice containing a 37,390 base pair fragment of the human KLKB1 gene sequence (chromosome 4: position 187148672-187179625, accession no: NC_000004.11) were treated with ISIS antisense oligonucleotides selected from studies described above, which were evaluated for efficacy in this model.
(§3) Groups of transgenic mice were injected subcutaneously twice a week for 3 weeks with 2.5 mg/kg/week, 5.0 mg/kg/week, 10 mg/kg/week or 20 mg/kg/week of ISIS 546232, ISIS 546251, ISIS 546254, ISIS 546343, ISIS 546828, ISIS 547455, ISIS 547457, ISIS 547927, and ISIS 548048. One group of transgenic mice was injected subcutaneously twice a week for 3 weeks with PBS. Mice were euthanized 48 hours after the last dose, and organs and plasma were harvested for further analysis.
Plasma PKK protein levels were evaluated in all groups. Results are presented as percent inhibition of PKK protein, relative to PBS control.

[6] = Hematological parameters in cynomolgus monkeys (Example 8); conditions: cynomolgus monkey, 40 mg/kg sc, day 87 or day 88
Procedure: as §4
To evaluate any effect of ISIS oligonucleotides in cynomolgus monkeys on hematologic parameters, blood samples of approximately 1.2 mL of blood was collected pre-dose and on day 87 or day 88 from each of the available study animals in tubes containing K2-EDTA. Samples were analyzed for red blood cell (RBC) count, white blood cells (WBC) count, platelet count, hemoglobin content and hematocrit, using an ADVIA2120i hematology analyzer (SIEMENS, USA).

human PKK mRNA [7] = test: Antisense inhibition of human PKK mRNA in HepaRG cells, 1,000 nM, MOE/deoxy/cEt oligonucleotides (Example 3); type: cell-based; conditions: HepaRG cells, 1,000 nM, electroporation, 24 hours
Method in brief: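 Readout is percent PKK mRNA reduction against untreated controls, by real-time PCR (RTS3454) adjusted for total RNA via RIBOGREEN. Oligonucleotides, phosphorothioate gapmers of 16 nucleosides with cEt, MOE and deoxy sugars, were delivered at 1,000 nM by electroporation to 20,000 HepaRG cells/well for roughly 24 h.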

[8] = Urine protein/creatinine ratio in cynomolgus monkeys (Example 8); conditions: cynomolgus monkey, 40 mg/kg sc
Procedure: as §4
Kidney function was also assessed by urinalysis. Fresh urine from all animals was collected using a clean cage pan on wet ice. Food was removed overnight the day before fresh urine collection was done but water was supplied. The total protein and creatinine levels were measured using a Toshiba 120FR NEO automated chemistry analyzer (Toshiba Co., Japan) and the protein to creatinine ratio was calculated.

PKK protein [9] = test: PKK protein in cynomolgus monkey plasma by ELISA (Example 8); type: in vivo; conditions: 40 mg/kg sc
Procedure: Approximately 0.9 mL of blood was collected each time from all available animals at pre-dose, day 17, day 31, day 45, day 59, and day 73, and placed in tubes containing 3.2% sodium citrate. The tubes were centrifuged (3000 rpm for 10 min at room temperature) to obtain plasma. PKK protein levels were measured in the plasma by ELISA. The results are presented in Table 52, expressed as percentage inhibition compared to the PBS control levels.

human PKK mRNA [10] = test: Human PKK mRNA in liver of human KLKB1 transgenic mice (Example 7); type: in vivo
Procedure: as §2, §3
To evaluate the effect of ISIS oligonucleotides on target reduction, RNA was extracted from liver tissue for real-time PCR analysis of human PKK. Results are presented as percent inhibition of PKK mRNA, relative to PBS control.

human PKK mRNA [11] = test: Dose-dependent antisense inhibition of human PKK in HepaRG cells, 0.19-5.00 uM (Example 5); type: cell-based; conditions: 4 point dose response curve (0.19-5.0 μM), HepaRG cells, electroporation
Method in brief: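 PKK mRNA knockdown was measured by real-time PCR (primer probe set RTS3454) about 16 h after electroporating 20,000 HepaRG cells per well with oligonucleotide at four doses from 0.19 to 5.00 μM. Levels were adjusted to RIBOGREEN-measured total RNA, and IC50 values were calculated.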

human PKK mRNA [12] = test: Antisense inhibition of human PKK mRNA in HepaRG cells, 5,000 nM (Example 2); type: cell-based; conditions: HepaRG cells, 5,000 nM, electroporation, 24 hours
Method in brief: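 Chimeric MOE gapmers with full phosphorothioate backbones were tested once at 5,000 nM in electroporated HepaRG cells. After about 24 hours, quantitative PCR measured PKK mRNA relative to untreated control cells.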

Row | Substance | tolerability in primates [1] | C3 (% of baseline) [2] | CRP [2] [mg/dL] | Plasma BUN [3] [mg/dL] | Plasma Creatinine [3] [mg/dL] | inhibiting PKK mRNA and protein expression in primates (PKK mRNA) | ALT [4] [IU/L] | AST [4] [IU/L] | Albumin [4] [g/dL] | HCT [6] [%] | Hemoglobin [6] [g/dL] | Platelets [6] [µL⁻¹] | RBC [6] [µL⁻¹] | WBC [6] [µL⁻¹] | Urine protein/creatinine ratio [8] | PKK protein level reduction (%) in plasma relative to control levels (PKK protein [9]; Day 17) [%] | PKK protein level reduction (%) in plasma relative to control levels (PKK protein [9]; Day 31) [%] | PKK protein level reduction (%) in plasma relative to control levels (PKK protein [9]; Day 45) [%] | PKK protein level reduction (%) in plasma relative to control levels (PKK protein [9]; Day 59) [%] | PKK protein level reduction (%) in plasma relative to control levels (PKK protein [9]; Day 73) [%] | further results
1 | mCes Ges Aks Tds Ads Tds mCds Ads Tds Gds Ads Tds Tds mCks mCks mCe [ISIS 548048] | tolerable in primates | 69 % of baseline | 0.2 | 21.9 | 0.9 | effective for inhibiting PKK mRNA and protein expression | 47 | 44 | 4.2 | 44 | 13.4 | 393000 | 5.9e+06 | 11000 | 0.03 | 90 | 93 | 95 | 95 | 95 | human PKK protein inhibition (PKK protein [5]; 2.5 mg/kg/week s.c. twice a week for 3 weeks): 23%; human PKK protein inhibition (PKK protein [5]; 5.0 mg/kg/week s.c. twice a week for 3 weeks): 70%; human PKK protein inhibition (PKK protein [5]; 10 mg/kg/week s.c. twice a week for 3 weeks): 89%; human PKK protein inhibition (PKK protein [5]; 20 mg/kg/week s.c. twice a week for 3 weeks): 98%; mRNA inhibition (human PKK mRNA [7]): 84%; human PKK mRNA inhibition (human PKK mRNA [10]; transgenic mice, 2.5 mg/kg/week s.c. twice a week for 3 weeks): 7%; human PKK mRNA inhibition (human PKK mRNA [10]; transgenic mice, 5.0 mg/kg/week s.c. twice a week for 3 weeks): 77%; human PKK mRNA inhibition (human PKK mRNA [10]; transgenic mice, 10 mg/kg/week s.c. twice a week for 3 weeks): 72%; human PKK mRNA inhibition (human PKK mRNA [10]; transgenic mice, 20 mg/kg/week s.c. twice a week for 3 weeks): 80%
2 | mCes mCes mCes mCes mCes Tds Tds mCds Tds Tds Tds Ads Tds Ads Gds mCes mCes Aes Ges mCe [ISIS 546343] | tolerable in primates | 60 % of baseline | 0.2 | 26.2 | 1.0 | effective for inhibiting PKK mRNA and protein expression | 76 | 49 | 4.3 | 42 | 12.6 | 373000 | 5.5e+06 | 14000 | 0.01 | 56 | 74 | 69 | 70 | 70 | IC50 (human PKK mRNA [11]): 400 nM; inhibition of human PKK mRNA (human PKK mRNA [12]): 97% and 91%; human PKK mRNA inhibition (human PKK mRNA [10]; transgenic mice, 2.5, 5.0, 10 or 20 mg/kg/week s.c., three values for four doses, dose not assignable): 46% and 66% and 86%
